According to ChEMBL document CHEMBL1143824, “National survey on the susceptibility of Bacteroides fragilis group: report and analysis of trends in the United States from 1997 to 2004” (2007):
In brackets after ≈: the same amount, converted by molar mass.

Key:
Format in all cases: functional
[1] = system: Phocaeicola vulgatus; experiment: Antimicrobial activity against Bacteroides vulgatus isolates by agar dilution method
[2] = system: Bacteroides fragilis; experiment: Antimicrobial activity against Bacteroides fragilis isolates by agar dilution method
[3] = system: Bacteroides uniformis; experiment: Antimicrobial activity against Bacteroides uniformis isolates by agar dilution method
[4] = system: Phocaeicola vulgatus; experiment: Antimicrobial activity against Bacteroides vulgatus assessed as percent resistant isolates
[5] = system: Parabacteroides merdae; experiment: Antimicrobial activity against Bacteroides merdae assessed as percent resistant isolates
[6] = system: Bacteroides stercoris; experiment: Antimicrobial activity against Bacteroides stercoris isolates by agar dilution method
[7] = system: Bacteroides stercoris; experiment: Antimicrobial activity against Bacteroides stercoris assessed as percent resistant isolates
[8] = system: Bacteroides caccae; experiment: Antimicrobial activity against Bacteroides caccae assessed as percent resistant isolates
[9] = system: Bacteroides caccae; experiment: Antimicrobial activity against Bacteroides caccae isolates by agar dilution method
[10] = system: Bacteroides thetaiotaomicron; experiment: Antimicrobial activity against Bacteroides thetaiotaomicron isolates by agar dilution method
[11] = system: Parabacteroides merdae; experiment: Antimicrobial activity against Bacteroides merdae isolates by agar dilution method
[12] = system: Bacteroides fragilis; experiment: Antimicrobial activity against Bacteroides fragilis assessed as percent resistant isolates
[13] = system: Parabacteroides distasonis; experiment: Antimicrobial activity against Bacteroides distasonis isolates by agar dilution method
[14] = system: Parabacteroides distasonis; experiment: Antimicrobial activity against Bacteroides distasonis assessed as percent resistant isolates
[15] = system: Bacteroides ovatus; experiment: Antimicrobial activity against Bacteroides ovatus isolates by agar dilution method
[16] = system: Bacteroides thetaiotaomicron; experiment: Antimicrobial activity against Bacteroides thetaiotaomicron assessed as percent resistant isolates
[17] = system: Bacteroides eggerthii; experiment: Antimicrobial activity against Bacteroides eggerthii isolates by agar dilution method
[18] = system: Bacteroides eggerthii; experiment: Antimicrobial activity against Bacteroides eggerthii assessed as percent resistant isolates
[19] = system: Bacteroides ovatus; experiment: Antimicrobial activity against Bacteroides ovatus assessed as percent resistant isolates
[20] = system: Bacteroides uniformis; experiment: Antimicrobial activity against Bacteroides uniformis assessed as percent resistant isolates

Row | Compound | MIC [1] [µg/mL] | MIC90 [1] [µg/mL] | MIC [2] [µg/mL] | MIC90 [2] [µg/mL] | MIC [3] [µg/mL] | MIC90 [3] [µg/mL] | Activity [4] [%] | Activity [5] [%] | MIC [6] [µg/mL] | MIC90 [6] [µg/mL] | Activity [7] [%] | Activity [8] [%] | MIC [9] [µg/mL] | MIC90 [9] [µg/mL] | MIC [10] [µg/mL] | MIC90 [10] [µg/mL] | MIC [11] [µg/mL] | MIC90 [11] [µg/mL] | Activity [12] [%] | MIC90 [13] [µg/mL] | other results
1 | COc1c(N2C[C@@H]3CCCN[C@@H]3C2)c(F)cc2c(=O)c(C(=O)O)cn(C3CC3)c12 [MOXIFLOXACIN] | 7.92 (≈ 19.7 µM) | 64 (≈ 159 µM) | 1.83 (≈ 4.56 µM) | 8 (≈ 19.9 µM) | 5.57 (≈ 13.9 µM) | 32 (≈ 79.7 µM) | 54.7 | 36.4 | 3.85 (≈ 9.59 µM) | 32 (≈ 79.7 µM) | 36.4 | 36.4 | 3.85 (≈ 9.59 µM) | 32 (≈ 79.7 µM) | 3.71 (≈ 9.24 µM) | 32 (≈ 79.7 µM) | 3.85 (≈ 9.59 µM) | 32 (≈ 79.7 µM) | 27.3 | 16 (≈ 39.9 µM) | MIC [13]: 2.32 µg/mL (≈ 5.78 µM); Activity [14]: 29.2%; MIC [15]: 5.49 µg/mL (≈ 13.7 µM); MIC90 [15]: 32 µg/mL (≈ 79.7 µM); Activity [16]: 26.3%; MIC [17]: 3.85 µg/mL (≈ 9.59 µM); MIC90 [17]: 32 µg/mL (≈ 79.7 µM); Activity [18]: 36.4%; Activity [19]: 38.3%; Activity [20]: 38.6%
2 | C[C@@H](O)[C@H]1C(=O)N2C(C(=O)O)=C(S[C@@H]3CN[C@H](C(=O)N(C)C)C3)[C@H](C)[C@H]12 [MEROPENEM] | 0.47 (≈ 1.23 µM) | 1 (≈ 2.61 µM) | 0.38 (≈ 0.991 µM) | 1 (≈ 2.61 µM) | 0.41 (≈ 1.07 µM) | 1 (≈ 2.61 µM) | 0 | 0.5 | 0.4 (≈ 1.04 µM) | 1 (≈ 2.61 µM) | 0.5 | 0.5 | 0.4 (≈ 1.04 µM) | 1 (≈ 2.61 µM) | 0.47 (≈ 1.23 µM) | 1 (≈ 2.61 µM) | 0.4 (≈ 1.04 µM) | 1 (≈ 2.61 µM) | 1 | 2 (≈ 5.22 µM) | Activity [14]: 1.1%; Activity [16]: 0.1%; MIC [17]: 0.4 µg/mL (≈ 1.04 µM); MIC90 [17]: 1 µg/mL (≈ 2.61 µM); Activity [18]: 0.5%; Activity [20]: 0.5%
3 | C[C@@H](O)[C@H]1C(=O)N2C(C(=O)O)=C(SC3CNC(C(=O)Nc4cccc(C(=O)O)c4)C3)[C@H](C)[C@H]12 (single isomer, unassigned) [ERTAPENEM] | 0.82 (≈ 1.72 µM) | 2 (≈ 4.21 µM) | 0.79 (≈ 1.66 µM) | 2 (≈ 4.21 µM) | 0.88 (≈ 1.85 µM) | 2 (≈ 4.21 µM) | 0.3 | 0.5 | 1.03 (≈ 2.17 µM) | 4 (≈ 8.41 µM) | 0.5 | 0.5 | 1.03 (≈ 2.17 µM) | 4 (≈ 8.41 µM) | 1.69 (≈ 3.55 µM) | 4 (≈ 8.41 µM) | 1.03 (≈ 2.17 µM) | 4 (≈ 8.41 µM) | 1.4 | 4 (≈ 8.41 µM) | MIC [13]: 1.77 µg/mL (≈ 3.72 µM); Activity [14]: 1.5%; MIC [15]: 1.58 µg/mL (≈ 3.32 µM); MIC90 [15]: 4 µg/mL (≈ 8.41 µM); Activity [16]: 0.4%; MIC [17]: 1.03 µg/mL (≈ 2.17 µM); MIC90 [17]: 4 µg/mL (≈ 8.41 µM); Activity [18]: 0.5%; Activity [19]: 0.6%; Activity [20]: 0.5%
4 | COC1(NC(=O)Cc2cccs2)C(=O)N2C(C(=O)O)=C(COC(N)=O)CS[C@@H]21 (single isomer, unassigned) [CEFOXITIN] | 10.5 (≈ 24.6 µM) | 32 (≈ 74.9 µM) | 15.4 (≈ 36.1 µM) | 32 (≈ 74.9 µM) | 12.9 (≈ 30.2 µM) | 32 (≈ 74.9 µM) | 0.3 | 10.9 | 17.6 (≈ 41.2 µM) | 64 (≈ 150 µM) | 10.9 | 10.9 | 17.6 (≈ 41.2 µM) | 64 (≈ 150 µM) | 29.5 (≈ 69 µM) | 64 (≈ 150 µM) | 17.6 (≈ 41.2 µM) | 64 (≈ 150 µM) | 5.2 | 128 (≈ 299 µM) | MIC [13]: 34.2 µg/mL (≈ 80 µM); Activity [14]: 29.9%; MIC [15]: 27.2 µg/mL (≈ 63.5 µM); MIC90 [15]: 64 µg/mL (≈ 150 µM); Activity [16]: 16.8%; MIC [17]: 17.6 µg/mL (≈ 41.2 µM); MIC90 [17]: 64 µg/mL (≈ 150 µM); Activity [18]: 10.9%; Activity [19]: 17.2%; Activity [20]: 7.5%
5 | CCC[C@@H]1C[C@@H](C(=O)NC([C@H](C)Cl)[C@H]2O[C@H](SC)[C@H](O)[C@@H](O)[C@H]2O)N(C)C1 (single isomer, unassigned) [CLINDAMYCIN] | 4.31 (≈ 10.1 µM) | 256 (≈ 602 µM) | 1.89 (≈ 4.45 µM) | 256 (≈ 602 µM) | 4.22 (≈ 9.93 µM) | 256 (≈ 602 µM) | 35.3 | 28.2 | 3.63 (≈ 8.54 µM) | 256 (≈ 602 µM) | 28.2 | 28.2 | 3.63 (≈ 8.54 µM) | 256 (≈ 602 µM) | 6.62 (≈ 15.6 µM) | 256 (≈ 602 µM) | 3.63 (≈ 8.54 µM) | 256 (≈ 602 µM) | 19.3 | 256 (≈ 602 µM) | MIC [13]: 4.51 µg/mL (≈ 10.6 µM); Activity [14]: 29.6%; MIC [15]: 5.89 µg/mL (≈ 13.9 µM); MIC90 [15]: 256 µg/mL (≈ 602 µM); Activity [16]: 33.3%; MIC [17]: 3.63 µg/mL (≈ 8.54 µM); MIC90 [17]: 256 µg/mL (≈ 602 µM); Activity [18]: 28.2%; Activity [19]: 33.4%; Activity [20]: 28.9%
6 | CN(C)c1cc(NC(=O)CNC(C)(C)C)c(O)c2c1C[C@H]1C[C@H]3[C@H](N(C)C)C(O)=C(C(N)=O)C(=O)[C@@]3(O)C(O)=C1C2=O [TIGECYCLINE] | 1.05 (≈ 1.79 µM) | 4 (≈ 6.83 µM) | 1.59 (≈ 2.71 µM) | 8 (≈ 13.7 µM) | 0.77 (≈ 1.31 µM) | 4 (≈ 6.83 µM) | 1.6 | 7.2 | 1.51 (≈ 2.58 µM) | 8 (≈ 13.7 µM) | 7.2 | 7.2 | 1.51 (≈ 2.58 µM) | 8 (≈ 13.7 µM) | 1.57 (≈ 2.68 µM) | 8 (≈ 13.7 µM) | 1.51 (≈ 2.58 µM) | 8 (≈ 13.7 µM) | 5.1 | 8 (≈ 13.7 µM) | MIC [13]: 2.09 µg/mL (≈ 3.57 µM); Activity [14]: 2.1%; MIC [15]: 1.52 µg/mL (≈ 2.6 µM); MIC90 [15]: 8 µg/mL (≈ 13.7 µM); Activity [16]: 3.6%; MIC [17]: 1.51 µg/mL (≈ 2.58 µM); MIC90 [17]: 8 µg/mL (≈ 13.7 µM); Activity [18]: 7.2%; Activity [19]: 3.3%; Activity [20]: 3.4%
7 | C[C@@H](O)[C@H]1C(=O)N2C(C(=O)O)=C(SCCNC=N)C[C@H]12 [IMIPENEM ANHYDROUS] | 0.5 (≈ 1.67 µM) | 1 (≈ 3.34 µM) | 0.31 (≈ 1.04 µM) | 1 (≈ 3.34 µM) | 0.43 (≈ 1.44 µM) | 1 (≈ 3.34 µM) | 0.3 | 0 | 0.35 (≈ 1.17 µM) | 1 (≈ 3.34 µM) | 0 | 0 | 0.35 (≈ 1.17 µM) | 1 (≈ 3.34 µM) | 0.45 (≈ 1.5 µM) | 1 (≈ 3.34 µM) | 0.35 (≈ 1.17 µM) | 1 (≈ 3.34 µM) | 0.5 | 2 (≈ 6.68 µM) | MIC [13]: 0.95 µg/mL (≈ 3.17 µM); Activity [14]: 0.4%; MIC [15]: 0.39 µg/mL (≈ 1.3 µM); MIC90 [15]: 1 µg/mL (≈ 3.34 µM); Activity [16]: 0.2%; MIC [17]: 0.35 µg/mL (≈ 1.17 µM); MIC90 [17]: 1 µg/mL (≈ 3.34 µM); Activity [18]: 0%; Activity [19]: 0.2%; Activity [20]: 0.5%
